These results are taken from patent publication EP0289204B1, “Lithium salt-containing pharmaceutical compositions” (EFAMOL HOLDINGS PLC, priority 1987, dated 1988).

Like-named read-outs stand apart in the source and are kept apart here.

How the values of series [1] were obtained:
Each 50 ml water contained 11.4 mg lithium. Each aqueous solution was then shaken with 250 ml of chloroform/methanol (2/l by volume). The chloroform/methanol fraction was then separated off and evaporated to dryness under a stream of nitrogen. The mass of dry extract from the chloroform/methanol phase was weighed and its lithium content determined by flame photometry. The lithium content of the aqueous phase was also measured by flame photometry. • (B) 1 g of pure gamma-linolenic acid was dissolved in 10 ml of chloroform/methanol (2/l by volume). The resulting solution was then thoroughly shaken with 50 ml distilled water. The chloroform/methanol phase was then separated off and evaporated to dryness in a stream of nitrogen and the mass of dry extract was weighed.

A short description of series [2]: Partition of lithium between water and chloroform/methanol (experiment A), lithium determined by flame photometry. In kind it is physicochemical. The settings on record: 50 ml distilled water shaken with 250 ml chloroform/methanol (2/l by volume); range of five repeats. Here is the method: Each 50 ml water contained 11.4 mg lithium.
Setting [3] is: 1 g in 10 ml chloroform/methanol (2/l by volume) shaken with 50 ml distilled water, range of five repeats.
[4] abbreviates: fatty acid salt, taken as equivalent to the percentage of lithium (experiment A).

On to `CCCCC/C=C\C/C=C\C/C=C\CCCCC(=O)O` [Gamma-linolenic acid, reference compound], for which, in series [1] (setting [3]), the “Percentage of total fatty acid/ fatty acid salt* in: Aqueous phase” value was 2-9% and the “Percentage of total fatty acid/ fatty acid salt* in: Chloroform/methanol phase” value is reported as 91-98%.

For the molecule `CCCCC/C=C\C/C=C\C/C=C\CCCCC(=O)[O-].[Li+]` [Lithium gammalinolenate, Lithium gamma-linolenate], in series [2], the “Percentage of total lithium in: Aqueous phase” value is on record as 11-17% and the “Percentage of total lithium in: Chloroform/methanol phase” value was 83-89%. For the same molecule, the solubility (as a rule, the concentration that dissolves in the medium under given conditions) in the series “physchem” (alcohol, organic solvent or mixture) is over 30 mg/mL. This molecule came in with a solubility in the series “physchem” (water) of over 30 mg/mL. For the same molecule, in series [1] (setting [4]), the “Percentage of total fatty acid/ fatty acid salt* in: Aqueous phase” value is reported as 11-17% and the “Percentage of total fatty acid/ fatty acid salt* in: Chloroform/methanol phase” value is 83-89%.

Regarding `[Cl-].[Li+]` [Lithium chloride, reference compound], in series [2], the “Percentage of total lithium in: Chloroform/methanol phase” value was 1-5%.
